Results on two compounds are retold here after article PMC8448937 (Journal of clinical pharmacy and therapeutics, 2021).

One data set relates to CYP3A4. Particulars: cited from earlier work.
For data set [1] the following is noted: previous studies incl. initial analysis of P1026s data; cited from earlier work.
For data set [2] the following is noted: non-pregnant adults; cited from earlier work.
The conditions of data set [3]: for CL/F (oral clearance): all women not receiving lopinavir/ritonavir, median; for C0: pre-dose.
The conditions of data set [4]: in vivo.
The next data set is described as follows: clinical. Particulars: female, human, in vivo.
[5] abbreviates: postpartum, with LPV/r, median (IQR).
[6] abbreviates: postpartum, without LPV/r, other regimens, median (IQR).
Setting [7] is: postpartum, without LPV/r, with ATV/r, median (IQR).
[8] abbreviates: third trimester, with LPV/r, median (IQR).
Where [9] appears, read: third trimester, without LPV/r, other regimens, median (IQR).
Setting [10] is: third trimester, without LPV/r, with ATV/r, median (IQR).

Molecules are shown by their SMILES. Where two headings read alike, the source gives them in different places.

Regarding `CC(C)(C)NC(=O)[C@@H]1C[C@@H]2CCCC[C@@H]2CN1C[C@@H](O)[C@H](Cc1ccccc1)NC(=O)[C@H](CC(N)=O)NC(=O)c1ccc2ccccc2n1` [saquinavir], the CYP3A4 inhibition result in the data set with CYP3A4 is recorded as “weak inhibition”.

What is called half-life is the time needed for the level to fall by half in the phase considered. A lower half-life goes with fast loss. For orientation: AUC(0-t) means exposure summed from dosing to a finite time, without extrapolation to infinity. A word on the Cmax: it is the maximum level reached in the sampled fluid or tissue. Take `C[C@H](Cn1cnc2c(N)ncnc21)OCP(=O)(O)O` [Tenofovir]: the “clearance higher in third trimester of pregnancy compared to postpartum” value in data set [1] is given as 22–39%. In data set [1], the “exposure lower in third trimester of pregnancy compared to postpartum” value was 20–33%. For the same compound, in data set [2], the “exposure increased with concomitant lopinavir/ritonavir” value was 32%. This compound also showed a concentration at 24 h in data set [3] (female, human, in vivo, C24, third trimester, without LPV/r, with ATV/r, 24 hour post-dose, median (IQR)) of 47 ng/mL. In addition, the half-life in data set [3] (female, human, in vivo, t1/2, postpartum, with LPV/r, median (IQR)) was 12.5 h; in data set [3] (female, human, in vivo, t1/2, third trimester, with LPV/r, median (IQR)) it was 17.5 h. Also, the “CL/F (oral clearance)” value in data set [3] (postpartum) came out at 48 L/h; in data set [3] (third trimester), 61 L/h. Further, the CL/F in data set [3] (setting [5]) was 49 (36 – 75) L/hr; in data set [3] (setting [6]), 49 (30 – 58) L/hr; in data set [3] (setting [7]), 48 (38 – 63) L/hr; in data set [3] (setting [8]), 46 (40 – 60) L/hr; in data set [3] (setting [9]), 57 (47 – 62) L/hr; in data set [3] (setting [10]), 64 (57 – 85) L/hr. For the same compound, the Vd/F in data set [3] (setting [5]) was 1224 (643 – 1312) L/hr; in data set [3] (setting [6]) it was 757 (514 – 1133) L/hr; in data set [3] (setting [7]), 949 (676 – 1246) L/hr; in data set [3] (setting [8]) it was 1103 (973 – 1312) L/hr; in data set [3] (setting [9]) it was 1159 (1037 – 1709) L/hr; in data set [3] (setting [10]), 1284 (1120 – 2181) L/hr. Further, the C0 in data set [3] (setting [5]) was 59.4 (5.0 – 77.8) ng/mL; in data set [3] (setting [6]), 74 (50 – 118) ng/mL; in data set [3] (setting [7]) it was 60 (31 – 93) ng/mL; in data set [3] (setting [8]), 70 (53 – 85) ng/mL; in data set [3] (setting [9]), 54 (42 – 67) ng/mL; in data set [3] (setting [10]), 48 (36 – 59) ng/mL. Moreover, the t1/2 in data set [3] (setting [9]) was 15.9 (14.3 – 19.2) hr. Moreover, the “AUC0–24 (exposure) lower in third trimester compared to postpartum” value in data set [4] (female, human) is given as 27%. The “decrease in AUC0–24 during third trimester compared to postpartum” value in data set [4] (female, human) is on record as 25%. Besides, the “increase in CL/F during third trimester compared to postpartum” value in data set [4] (female, human) was found to be 33%. Moreover, the “oral clearance higher in third trimester compared to postpartum” value in data set [4] (female, human, po) is 27%. The “differences in AUC0–24, third trimester vs postpartum” value in data set [4] is reported as “did not reach statistical significance”. Also, the AUC(0-t) in “clinical” (AUC0–24) was 2200 ng·h/mL. The Cmax in “clinical” (Cmax) was 257 ng/mL.
